According to patent publication US11066369B2, “N-(pyridin-2-yl)pyridine-sulfonamide derivatives and their use in the treatment of disease” (Novartis AG, priority 2016, dated 2021):
Structures can show the parent of a compound that is named as a salt.

How the values were obtained:
delF508-CFTR = biological target: T1, delF508-CFTR (Homo sapiens, UniProt P13569, DEL508-508); test: Measurement of delF508-CFTR functional activity in primary human bronchial epithelial cells (HBECs) using Multi-Transepithelial Clamp Circuit (MTECC-24) assay; assay type: cell-based; settings: primary CF HBECs; for MTECC24 CFHBEC- Amax %: test compound added 24h before assay plus potentiator, relative to reference combination (2 μM corrector + 0.5 μM potentiator); for EC50: test compound added 24h before assay, in the presence of potentiator, mean of at least two replicates, read-out: MTECC24 CFHBEC- EC50
T1 construct: functional activity of the CFTR channel (Chloride ion transport) in patient derived primary human bronchial epithelial cells; host or cells: patient-derived primary human bronchial epithelial cells (delF508-CFTR)
T1 sequence (P13569 with tags, fused parts or gaps DEL508-508): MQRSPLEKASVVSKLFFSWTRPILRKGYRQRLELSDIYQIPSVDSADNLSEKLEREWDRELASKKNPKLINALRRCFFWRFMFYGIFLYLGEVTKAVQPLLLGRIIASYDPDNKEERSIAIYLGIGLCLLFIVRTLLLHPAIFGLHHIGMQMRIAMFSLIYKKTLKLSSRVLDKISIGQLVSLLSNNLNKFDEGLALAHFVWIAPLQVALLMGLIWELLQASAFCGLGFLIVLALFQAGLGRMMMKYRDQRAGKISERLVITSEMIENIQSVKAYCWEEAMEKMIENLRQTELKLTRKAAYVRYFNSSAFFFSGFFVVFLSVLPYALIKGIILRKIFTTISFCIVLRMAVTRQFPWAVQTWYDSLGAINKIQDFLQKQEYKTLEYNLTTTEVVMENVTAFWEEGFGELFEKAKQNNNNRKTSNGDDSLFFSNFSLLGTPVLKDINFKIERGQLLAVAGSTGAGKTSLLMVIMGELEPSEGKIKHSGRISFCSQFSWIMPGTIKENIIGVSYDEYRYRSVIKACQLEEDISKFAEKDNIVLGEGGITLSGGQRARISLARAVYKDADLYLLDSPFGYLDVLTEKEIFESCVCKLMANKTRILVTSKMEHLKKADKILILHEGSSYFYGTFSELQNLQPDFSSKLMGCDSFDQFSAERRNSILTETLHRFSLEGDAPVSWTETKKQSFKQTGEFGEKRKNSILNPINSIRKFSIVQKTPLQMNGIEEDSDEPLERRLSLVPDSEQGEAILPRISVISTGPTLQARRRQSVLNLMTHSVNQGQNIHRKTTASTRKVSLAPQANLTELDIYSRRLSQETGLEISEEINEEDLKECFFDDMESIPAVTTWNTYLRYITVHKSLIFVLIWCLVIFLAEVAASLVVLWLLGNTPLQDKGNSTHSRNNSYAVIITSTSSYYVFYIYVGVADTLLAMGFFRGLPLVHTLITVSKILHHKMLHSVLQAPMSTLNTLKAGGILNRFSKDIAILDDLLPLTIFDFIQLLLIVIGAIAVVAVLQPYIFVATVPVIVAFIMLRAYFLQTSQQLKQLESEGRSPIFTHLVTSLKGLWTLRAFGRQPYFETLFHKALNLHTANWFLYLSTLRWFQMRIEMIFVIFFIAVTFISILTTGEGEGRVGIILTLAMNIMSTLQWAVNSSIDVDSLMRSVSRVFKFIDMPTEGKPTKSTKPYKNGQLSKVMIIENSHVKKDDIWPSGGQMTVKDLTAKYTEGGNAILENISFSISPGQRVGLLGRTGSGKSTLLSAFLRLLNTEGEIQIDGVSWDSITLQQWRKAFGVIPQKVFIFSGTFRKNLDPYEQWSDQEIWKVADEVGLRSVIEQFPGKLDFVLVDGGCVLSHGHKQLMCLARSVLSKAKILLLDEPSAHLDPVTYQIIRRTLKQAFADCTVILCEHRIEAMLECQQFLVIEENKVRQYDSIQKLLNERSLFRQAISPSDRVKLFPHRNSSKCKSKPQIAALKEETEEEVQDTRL
How it was run: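 Compound tested as 10-point, 1-in-3 concentration response (0.1% or 0.2% DMSO), 24 h basolateral pre-incubation, then re-added to both sides. MTECC-24 measured Ieq in ALI-differentiated primary delF508 bronchial cells after amiloride, forskolin activation, potentiator and INH-172 block; data normalized to DMSO baseline, EC50 fitted.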

[1] = biological target: T2, horseradish peroxidase (HRP) tagged delF508-CFTR (Homo sapiens, UniProt P13569, DEL508-508); test: Measurement of delF508-CFTR-HRP surface expression in CFBE41o- cells; assay type: cell-based; settings: delF508-CFTR-HRP surface expression, CFBE41o- cells; for Emax: read-out: DelF508-CFTR-HRP Amax %; for EC50: read-out: DelF508-CFTR-HRP EC50;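 as to DelF508-CFTR-HRP Amax %: percent efficacy relative to reference corrector lumacaftor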
T2 construct: expressed in transfected cells
T2 sequence (P13569 with tags, fused parts or gaps DEL508-508): as above
How it was run: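 Surface-trafficked delF508-CFTR detected via extracellular HRP tag, read as luminescence from a membrane-impermeant substrate in CFBE41o- cells. Cells pre-induced 48h with 500 ng/mL doxycycline, then exposed 24h at 37° C to a 10-point, 3-fold dilution series from 10 μM (DMSO ≤0.5%). Triplicate dose-responses fitted logistically for EC50 after per-plate normalization; fold change versus reference compound.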

Row | SMILES | MTECC24 CFHBEC- Amax % (delF508-CFTR) [%] | EC50 (delF508-CFTR) [nM] | Emax [1] [%] | EC50 [1] [nM]
1 | Cc1ccccc1-c1nc(NS(=O)(=O)c2cccc(N[C@H]3CCCNC3)n2)ccc1C(F)(F)F [Example 105, (S)-6-(piperidin-3-ylamino)-N-(6-(o-tolyl)-5-(trifluoromethyl)pyridin-2-yl)pyridine-2-sulfonamide Hydrochloride] | 58.1 | 222 | 310 | 3190
2 | Cc1ccccc1-c1nc(NS(=O)(=O)c2cccc(N3CCC[C@@H](N)C3)n2)ccc1C(F)(F)F [Example 102, (R)-6-(3-aminopiperidin-1-yl)-N-(6-(o-tolyl)-5-(trifluoromethyl)pyridin-2-yl)pyridine-2-sulfonamide Hydrochloride] | 54.3 | 136 | 577 | 3280
3 | CC1(C(=O)O)CCN(c2cccc(S(=O)(=O)Nc3ccc(Cl)c(-c4cccc(F)c4Cl)n3)n2)CC1 [Example 245, 1-(6-(N-(5-chloro-6-(2-chloro-3-fluorophenyl)pyridin-2-yl)sulfamoyl)pyridin-2-yl)-4-methylpiperidine-4-carboxylic Acid] | 48.0 | 43.1 | 246 | 3440
4 | O=S(=O)(Nc1ccc(Cl)c(-c2cccc(F)c2Cl)n1)c1cccc(N2CC(O)C2)n1 [Example 229, N-(5-chloro-6-(2-chloro-3-fluorophenyl)pyridin-2-yl)-6-(3-hydroxyazetidin-1-yl)pyridine-2-sulfonamide] | 69.0 | 53.3 | 341 | 4290
5 | O=S(=O)(Nc1ccc(Cl)c(-c2ccccc2C(F)(F)F)n1)c1cccc(N[C@H]2COC[C@@H]2O)n1 [Example 125, N-(5-chloro-6-(2-(trifluoromethyl)phenyl)pyridin-2-yl)-6-(((3S,4R)-4-hydroxytetrahydrofuran-3-yl)amino)pyridine-2-sulfonamide] | 67.5 | 47.5 | 215 | 1940
6 | Cc1ccc(C#N)cc1-c1nc(NS(=O)(=O)c2cccc(N3CCNCC3)n2)ccc1Cl [Example 312, N-(5-chloro-6-(5-cyano-2-methylphenyl)pyridin-2-yl)-6-(piperazin-1-yl)pyridine-2-sulfonamide] | 49.8 | 458 | 167 | 3970
7 | Cc1ccccc1-c1nc(NS(=O)(=O)c2cccc(N3CCNCC3)n2)ccc1C(F)(F)F [Example 161, 6-(piperazin-1-yl)-N-(6-(o-tolyl)-5-(trifluoromethyl)pyridin-2-yl)pyridine-2-sulfonamide (HCl Salt)] | 88.2 | 91.6 | 222 | 2900
8 | Cc1cccc(C)c1-c1nc(NS(=O)(=O)c2ccnc(N)c2)ccc1Cl [Example 4, 2-amino-N-(5-chloro-6-(2,6-dimethylphenyl)pyridin-2-yl)pyridine-4-sulfonamide] | 52.0 | 40.8 | 632 | 912
9 | Cc1ccccc1-c1nc(NS(=O)(=O)c2cccc(N3CCN[C@@H](CO)C3)n2)ccc1C(F)(F)F [Example 165, (R)-6-(3-(hydroxymethyl)piperazin-1-yl)-N-(6-(o-tolyl)-5-(trifluoromethyl)pyridin-2-yl)pyridine-2-sulfonamide hydrochloride] | 50.8 | 342 | 401 | 2900

More lines, now with the values ahead:

Row | MTECC24 CFHBEC- Amax % (delF508-CFTR) [%] | EC50 (delF508-CFTR) [nM] | Emax [1] [%] | EC50 [1] [nM] | SMILES
10 | 66.9 | 0.797 | – | 1340 | O=C(O)[C@@H]1CCCN(c2cccc(S(=O)(=O)Nc3ccc(C(F)(F)F)c(-c4ccccc4C4CCC4)n3)n2)C1 [Example 366, (R)-1-(6-(N-(6-(2-cyclobutylphenyl)-5-(trifluoromethyl)pyridin-2-yl)sulfamoyl)pyridin-2-yl)piperidine-3-carboxylic Acid]
11 | 88.2 | 23.3 | 476 | 743 | Cc1ccccc1-c1nc(NS(=O)(=O)c2cccc(N3CCN(C(=O)OC(C)(C)C)CC3)n2)ccc1C(F)(F)F [Example 160, tert-butyl 4-(6-(N-(6-(o-tolyl)-5-(trifluoromethyl)pyridin-2-yl)sulfamoyl)pyridin-2-yl)piperazine-1-carboxylate]
12 | 119.0 | 11.1 | 711 | 1600 | Cc1ccc(F)cc1-c1nc(NS(=O)(=O)c2cccc(N3CC(C)(O)C3)n2)ccc1C(F)(F)F [Example 219, N-(6-(5-fluoro-2-methylphenyl)-5-(trifluoromethyl)pyridin-2-yl)-6-(3-hydroxy-3-methylazetidin-1-yl)pyridine-2-sulfonamide]
13 | 92.8 | 4.2 | 482 | 375 | CC(C)(C)OC(=O)N1CCN(c2cccc(S(=O)(=O)Nc3ccc(C(F)(F)F)c(-c4ccccc4C4CC4)n3)n2)CC1 [Example 147, tert-butyl 4-(6-(N-(6-(2-cyclopropylphenyl)-5-(trifluoromethyl)pyridin-2-yl)sulfamoyl)pyridin-2-yl)piperazine-1-carboxylate]
14 | 63.5 | 0.682 | – | 1210 | CC(C)c1ccccc1-c1nc(NS(=O)(=O)c2cccc(N3CCC[C@@H](C(=O)O)C3)n2)ccc1C(F)(F)F [Example 375, (R)-1-(6-(N-(6-(2-isopropylphenyl)-5-(trifluoromethyl)pyridin-2-yl)sulfamoyl)pyridin-2-yl)piperidine-3-carboxylic Acid]
15 | 85.2 | 0.9 | 493 | 2280 | Cc1ccccc1-c1nc(NS(=O)(=O)c2cccc(N[C@H]3C[C@H](O)C3)n2)ccc1C(F)(F)F [Example 284, N-[6-(2-methylphenyl)-5-(trifluoromethyl)pyridin-2-yl]-6-{[(1r,3r)-3-hydroxycyclobutyl]amino}pyridine-2-sulfonamide]
16 | 72.3 | 31.9 | 349 | 1700 | Cc1c(F)cccc1-c1nc(NS(=O)(=O)c2cccc(N3CC(O)C3)n2)ccc1Cl [Example 232, N-(5-chloro-6-(3-fluoro-2-methylphenyl)pyridin-2-yl)-6-(3-hydroxyazetidin-1-yl)pyridine-2-sulfonamide]
17 | 72.4 | 39.9 | 367 | 2260 | Cc1ccc(F)cc1-c1nc(NS(=O)(=O)c2ccnc(N)c2)ccc1C(F)(F)F [Example 42, 2-amino-N-(6-(5-fluoro-2-methylphenyl)-5-(trifluoromethyl)pyridin-2-yl)pyridine-4-sulfonamide]
18 | 60.1 | 15.4 | 257 | 2400 | O=S(=O)(Nc1ccc(C(F)(F)F)c(-c2ccccc2C(F)(F)F)n1)c1ccnc(N2CC(O)C2)c1 [Example 325, 2-(3-hydroxyazetidin-1-yl)-N-(5-(trifluoromethyl)-6-(2-(trifluoromethyl)phenyl)pyridin-2-yl)pyridine-4-sulfonamide]
19 | 66.4 | 10.5 | 806 | 2310 | Cc1ccc(F)cc1-c1nc(NS(=O)(=O)c2cccc(N[C@@H]3CCOC[C@@H]3O)n2)ccc1Cl [Example 272, N-[5-chloro-6-(5-fluoro-2-methylphenyl)pyridin-2-yl]-6-{[(3R,4R)-3-hydroxyoxan-4-yl]amino}pyridine-2-sulfonamide]
20 | 112.7 | 19 | 906 | 1980 | Cc1ccc(F)cc1-c1nc(NS(=O)(=O)c2cccc(N3CCN4C[C@@H](F)C[C@@H]4C3)n2)ccc1Cl [Example 134, N-(5-chloro-6-(5-fluoro-2-methylphenyl)pyridin-2-yl)-6-((7S,8aR)-7-fluorohexahydropyrrolo[1,2-a]pyrazin-2(1H)-yl)pyridine-2-sulfonamide]
21 | 51.5 | 2.72 | – | 2250 | Cc1ccccc1-c1nc(NS(=O)(=O)c2cccc(N3CCCC(C)(C(=O)O)C3)n2)ccc1C(F)(F)F (stereo not shown) [Example 337, 3-methyl-1-(6-{[6-(2-methylphenyl)-5-(trifluoromethyl)pyridin-2-yl]sulfamoyl}pyridin-2-yl)piperidine-3-carboxylic Acid]
22 | 63.5 | 7 | 552 | 1320 | CC1(O)CN(c2cccc(S(=O)(=O)Nc3ccc(C(F)(F)F)c(-c4ccccc4Cl)n3)n2)C1 [Example 221, N-(6-(2-chlorophenyl)-5-(trifluoromethyl)pyridin-2-yl)-6-(3-hydroxy-3-methylazetidin-1-yl)pyridine-2-sulfonamide]
